Common to all, as to assay type: in vivo
Experiment [1] has as its system Blattella germanica. The experiment in a line: Test Example 9: filter paper with sucrose bait, Blattella germanica. As to conditions: 500 ppm, 0.7 ml on filter paper, male imagoes, after 6 days. The procedure: The formulation of the compound 1-6 or 1-24 as obtained in Formulation Example 5 was diluted with water, so as to have a concentration of each compound of 500 ppm, to obtain a diluent.
A filter paper having a diameter of 5.5 cm was spread on the bottom of a polyethylene cup having the same diameter and 0.7 ml of the diluent was added dropwise onto the filter paper, and 30 mg of sucrose was uniformly placed as bait. Into the polyethylene cup, 2 male imagoes of Blattella germanica were released, and the cup was sealed with a lid. After 6 days, the life and death of Blattella germanica was examined, the number of dead insects was counted, and the death rate was calculated according to the following equation. Death rate (%)=(Number of dead insects/Number of tested insects)×100

Experiment [2] concerns Haemaphysalis longicornis. The experiment in a line: Test Example 11: coated screw tube contact test, Haemaphysalis longicornis ticks. As to conditions: 2 mg compound coated on inner wall of screw tube, non-blood-sucking nymphal ticks, after 2 days. The procedure: 2 mg of each of the compounds 1-6, 1-10, 1-15, 1-24 or 1-37 to 1-38 was weighed in a screw tube (Maruemu No. 5; 27×55 mm), and 0.2 mL of acetone was added thereto and sealed with a cap to dissolve the compound. The screw tube was rotated and inverted to uniformly coat the liquid onto the whole inner wall of the tube. After removing the cap, the solution was air-dried for about 2 hours, then non-blood-sucking nymphal ticks, Haemaphysalis longicornis (5 ticks/group) were released, and the tube was sealed with the cap. After 2 days, the number of dead insects was counted, and the death rate was calculated according to the following equation: Death rate (%)=100×(Number of dead insects/Number of tested insects)

Experiment [3] concerns Nilaparvata lugens. As to the kind of experiment: Test Example 4: soil drench of rice seedling, Nilaparvata lugens larvae released. As to conditions: 500 ppm, 5 ml drench at foot of rice seedling, third instar larvae released after 7 days, examined 6 days later. The procedure: The formulation of the compound 1-15 as obtained in Formulation Example 5 was diluted with water, so as to have a concentration of the compound of 500 ppm, to obtain a diluent.
On the other hand, a rice seedling (2 weeks after sowing, the second leaf stage) planted in a plastic cup was drenched at its foot with 5 ml of the diluent, and kept in a greenhouse at 25° C. for 7 days. 20 third instar larvae of Nilaparvata lugens were released, and further kept in the greenhouse for 6 days, then the number of surviving Nilaparvata lugens parasitic on the rice was examined, and the death rate was calculated according to the following equation: Death rate (%)=(1−Surviving insects/20)×100
wherein the non-treated section refers to a section where a liquid prepared by diluting the formulation not containing the present compound in Formulation Example 5 with the same amount of water as in the treated section was sprayed.

The subject of experiment [4] is Aphis gossypii. As to the kind of experiment: Test Example 2: soil drench of cucumber seedling, later inoculated with Aphis gossypii. As to conditions: 500 ppm, 5 ml drench at foot of cucumber seedling, inoculated after 7 days, examined 6 days later. The procedure:
The formulations of the compound 1-24 as obtained in Formulation Example 5 was diluted with water, so as to have a concentration of each compound of 500 ppm, to obtain a diluent. On the other hand, a cucumber seedling (the second true leaf stage) planted in a plastic cup was drenched at its foot with 5 ml of the diluent, and kept in a greenhouse at 25° C. for 7 days. On the cucumber leaf surface was inoculated about 30 Aphis gossypii (whole stage), and further kept in the greenhouse for 6 days, then the number of the surviving Aphis gossypii parasitic on the leaves of the cucumber was examined, and the control value was calculated according to the following equation: Control value (%)=(1−(Cb×Tai)/(Cai×Tb))×100 wherein the symbols represent as follows: Cb: the number of the insects in a non-treated section on inoculating insects Cai: the number of the surviving parasitic insects in a non-treated section on observation Tb: the number of the insects in a treated section on inoculating insects Tai: the number of the surviving parasitic insects in a treated section on observation wherein the non-treated section refers to a section where a liquid prepared by diluting the formulation not containing the present compound in Formulation Example 5 with the same amount of water as in the treated section was sprayed.

Some results are limits rather than exact numbers.

As to `CCSc1cc(C(F)(F)F)ccc1-c1nc(-c2ccc(C(F)(F)F)cn2)no1` [Compound 1-6], the Death rate in experiment [1] and in experiment [2] was 100% each time.
As for `CCSc1cc(C(F)(F)F)ccc1-c1nnc(-c2ccc(C(F)(F)F)cn2)s1` [Compound 1-10], the Death rate in experiment [2] was found to be 100%.
On to `CCS(=O)(=O)c1cccnc1-c1noc(-c2cc(C(F)(F)F)cc(C(F)(F)F)c2)n1` [Compound 1-15], for which the Death rate is reported as not below 90% in experiment [3] and 100% in experiment [2].
For the molecule `CCS(=O)(=O)c1ccccc1-c1noc(-c2cc(C(F)(F)F)cc(C(F)(F)F)c2)n1` [Compound 1-24], the Death rate in experiment [1] and in experiment [2] was 100% in each case. In experiment [4], this molecule showed a controlling value not below 90%.
For `CCS(=O)(=O)c1cccnc1-c1noc(-c2ccc(C(F)(F)F)s2)n1` [Compound 1-37], the Death rate in experiment [2] amounted to 100%.
On to `CCS(=O)(=O)c1cccnc1-c1noc(-c2cc(Cl)cc(Cl)c2)n1` [Compound 1-38], for which the Death rate in experiment [2] is 100%.

The values above are taken from patent US9884858B2, “Diaryl-azole compound” (Sumitomo Chemical Company, Limited, priority 2014, dated 2018).
